Laboratory results reported in patent US20100204265A1 (priority 2009, published 2010).

The compounds below were run on ET (Huh-lucubineo-ET) cell line harboring I389luc-ubi-neo/NS3-3′/ET HCV replicon (assay: Replicon assay (HCV replicon, luciferase readout)). Details: Hepatitis C virus.
Format: cell-based
Protocol: A cell line, ET (Huh-lucubineo-ET) is used for screening of compounds for inhibiting HCV RNA dependent RNA polymerase. The ET cell line is stably transfected with RNA transcripts harboring a I389luc-ubi-neo/NS3-3′/ET; replicon with firefly luciferase-ubiquitin-neomycin phosphotransferase fusion protein and EMCV-IRES driven NS3-5B polyprotein containing the cell culture adaptive mutations (E1202G; T1280I; K1846T) (Krieger at al, 2001 and unpublished). The ET cells are grown in DMEM (Dulbeco's Modified Eagle's Medium), supplemented with 10% fetal calf serum, 2 mM Glutamine, Penicillin (100 IU/mL)/Streptomycin (100 μg/mL), 1× nonessential amino acids, and 250 μg/mL G418 (“Geneticin”). They are all available through Life Technologies (Bethesda, Md.). The cells are plated at 0.5−1.0×10^4 cells/well in the 96 well plates and incubated for 24 hrs before adding test compound. The compounds are added to the cells to achieve a final concentration of 0.1 nM to […] and a final DMSO (dimethylsulfoxide) concentration of 0.5%. Luciferase activity is measured 48-72 hours later by adding a lysis buffer and the substrate (Catalog number Glo-lysis buffer E2661 and Bright-Glo luciferase system E2620 Promega, Madison, Wis.). Cells should not be too confluent during the assay. Percent inhibition of replication data is plotted relative to no compound control. Under the same condition, cytotoxicity of the compounds are determined using cell proliferation reagent, WST-1 (Roche, Germany). The compounds showing antiviral activities, but no significant cytotoxicities are chosen to determine EC50 and TC50. For these determinations, a 10 point, 2-fold serial dilution for each compound was used, which spans a concentration range of 1000 fold. EC50 and similarly TC50 values were calculated by fitting % inhibition at each concentration to the following equation:
% inhibition=100%/[(EC50/[I])^b+1]
where b is Hill's coefficient.

| Structure (SMILES) | EC50 |
| --- | --- |
| COC(=O)C(NC(=O)c1cn2cc(-c3ccoc3)cc(C(F)(F)F)c2n1)C(C)(C)C (stereo not shown) [Compound 154, 2-[(6-Furan-3-yl-8-trifluoromethyl-imidazo[1,2-a]pyridine-2-carbonyl)-amino]-3,3-dimethyl-butyric acid methyl ester] | 27.7 µM |
| COC(=O)C(Cc1cnc[nH]1)NC(=O)c1cn2cc(-c3ccoc3)cc(C(F)(F)F)c2n1 (stereo not shown) [Compound 155, 2-[(6-Furan-3-yl-8-trifluoromethyl-imidazo[1,2-a]pyridine-2-carbonyl)-amino]-3-(3H-imidazol-4-yl)-propionic acid methyl ester] | 44.5 µM |
| COC(=O)C(CC(C)C)NC(=O)c1cn2cc(-c3ccoc3)cc(C(F)(F)F)c2n1 (stereo not shown) [Compound 156, 2-[(6-Furan-3-yl-8-trifluoromethyl-imidazo[1,2-a]pyridine-2-carbonyl)-amino]-4-methyl-pentanoic acid methyl ester] | 46.8 µM |
| COC(=O)C(Cc1ccccc1)NC(=O)c1cn2cc(-c3ccoc3)cc(C(F)(F)F)c2n1 (stereo not shown) [Compound 157, 2-[(6-Furan-3-yl-8-trifluoromethyl-imidazo[1,2-a]pyridine-2-carbonyl)-amino]-3-phenyl-propionic acid methyl ester] | > 50 µM |
| CC(C)CCOC1CCN(C(=O)c2nc3c(C(F)(F)F)cc(-c4ccoc4)cn3c2Cl)CC1 [Compound 158, (3-Chloro-6-furan-3-yl-8-trifluoromethyl-imidazo[1,2-a]pyridin-2-yl)-[4-(3-methyl-butoxy)-piperidin-1-yl]-methanone] | 8.11 µM |
| O=C1CCC=C1C1=CCN(C(=O)c2nc3c(C(F)(F)F)cc(-c4ccoc4)cn3c2Cl)CC1 [Compound 159, 2-[1-(3-Chloro-6-furan-3-yl-8-trifluoromethyl-imidazo[1,2-a]pyridine-2-carbonyl)-1,2,3,6-tetrahydro-pyridin-4-yl]-cyclopent-2-enone] | 0.247 µM |
| O=C(c1nc2c(C(F)(F)F)cc(-c3ccoc3)cn2c1Cl)N1CC[C@@H](NC(=O)C(F)(F)F)C1 [Compound 162, N-[1-(3-Chloro-6-furan-3-yl-8-trifluoromethyl-imidazo[1,2-a]pyridine-2-carbonyl)-pyrrohdin-3-yl]-2,2,2-trifluoro-acetamide] | 43.5 µM |
| FC(F)(F)c1cc(-c2ccoc2)cn2cc(CN3CC=C(c4nccs4)C3)nc12 [Compound 163, 6-Furan-3-yl-2-(3-thiazol-2-yl-2,5-dihydro-pyrrol-1-ylmethyl)-8-trifluoromethyl-imidazo[1,2-a]pyridine] | 42.4 µM |
| C=CC(=O)N[C@@H]1CCN(C(=O)c2nc3c(C(F)(F)F)cc(-c4ccoc4)cn3c2Cl)C1 [Compound 167, N-[1-(3-Chloro-6-furan-3-yl-8-trifluoromethyl-imidazo[1,2-a]pyridine-2-carbonyl)-pyrrolidin-3-yl]-acrylamide] | 1.68 µM |
| N#Cc1c(-c2ccoc2)cc(C(F)F)c2nc(C(=O)N3CC=C(c4nccs4)C3)c(Cl)n12 [Compound 169, 3-Chloro-8-difluoromethyl-6-furan-3-yl-2-(3-thiazol-2-yl-2,5-dihydro-pyrrole-1-carbonyl)-imidazo[1,2-a]pyridine-5-carbonitrile] | 0.28 µM |
| O=C(c1nc2c(C(F)(F)F)cc(-c3ccoc3)cn2c1CO)N1CC=C(c2nccs2)C1 [Compound 170, (6-Furan-3-yl-3-hydroxymethyl-8-trifluoromethyl-imidazo[1,2-a]pyridin-2-yl)-(3-thiazol-2-yl-2,5-dihydro-pyrrol-1-yl) methanone] | 0.026 µM |
| O=C(c1nc2c(C(F)(F)F)cc(-c3ccoc3)cn2c1CO)N1CC=C(c2ncccc2F)CC1 [Compound 171, (3-Fluoro-3′,6′-dihydro-2′H-[2,4′]bipyridinyl-1′-yl)-(6-furan-3-yl-3-hydroxymethyl-8-trifluoromethyl-imidazo[1,2-a]pyridin-2-yl)-methanone] | 1.41 µM |
| CC(O)c1c(C(=O)N2CC=C(c3ncccc3F)CC2)nc2c(C(F)(F)F)cc(-c3ccoc3)cn12 (stereo not shown) [Compound 172, (3-Fluoro-3′,6′-dihydro-2′H-[2,4′]bipyridinyl-1′-yl)-[6-furan-3-yl-3-(1-hydroxy-ethyl)-8-trifluoromethyl-imidazo[1,2-a]pyridin-2-yl]-methanone] | 3.11 µM |
| O=C(c1nc2c(C(F)(F)F)cc(-c3cn[nH]c3)cn2c1CO)N1CC=C(c2nccs2)C1 [Compound 173, [3-Hydroxymethyl-6-(1H-pyrazol-4-yl)-8-trifluoromethyl-imidazo[1,2-a]pyridin-2-yl]-(3-thiazol-2-yl-2,5-dihydro-pyrrol-1-yl)-methanone] | 0.444 µM |
| O=C(c1nc2c(C(F)(F)F)cc(-c3cn[nH]c3)cn2c1Cl)N1CCC(OCC2CC2)CC1 [Compound 174, [3-Chloro-6-(1H-pyrazol-4-yl)-8-trifluoromethyl-imidazo[1,2-a]pyridin-2-yl]-(4-cyclopropylmethoxy-piperidin-1-yl)-methanone] | 0.31 µM |
| O=C(c1nc2c(C(F)(F)F)cc(-c3ccoc3)cn2c1Cl)N1CCC(OCC2CC2)CC1 [Compound 175, (3-Chloro-6-furan-3-yl-8-trifluoromethyl-imidazo[1,2-a]pyridin-2-yl)-(4-cyclopropylmethoxy-piperidin-1-yl)-methanone] | 0.79 µM |
| CCCOC1CCN(C(=O)c2nc3c(C(F)(F)F)cc(-c4cn[nH]c4)cn3c2Cl)CC1 [Compound 176, [3-Chloro-6-(1H-pyrazol-4-yl)-8-trifluoromethyl-imidazo[1,2-a]pyridin-2-yl]-(4-propoxy-piperidin-1-yl)-methanone] | 0.883 µM |
| CCOC1CCN(C(=O)c2nc3c(C(F)(F)F)cc(-c4cn[nH]c4)cn3c2Cl)CC1 [Compound 177, [3-Chloro-6-(1H-pyrazol-4-yl)-8-trifluoromethyl-imidazo[1,2-a]pyridin-2-yl]-(4-ethoxy-piperidin-1-yl)-methanone] | 1.08 µM |
| COc1cccc(NC2CCN(C(=O)c3nc4c(C(F)(F)F)cc(-c5ccoc5)cn4c3Cl)C2)c1 (stereo not shown) [Compound 178, (3-Chloro-6-furan-3-yl-8-trifluoromethyl-imidazo[1,2-a]pyridin-2-yl)-[3-(3-methoxy-phenylamino)-pyrrolidin-1-yl]-methanone] | 2.41 µM |
| O=C(c1nc2c(C(F)(F)F)cc(-c3cn[nH]c3)cn2c1Cl)N1CCC(Nc2ccccc2)C1 (stereo not shown) [Compound 179, [3-Chloro-6-(1H-pyrazol-4-yl)-8-trifluoromethyl-imidazo[1,2-a]pyridin-2-yl]-(3-phenylamino-pyrrolidin-1-yl)-methanone] | 10.2 µM |
| COc1ccc(NC2CCN(C(=O)c3nc4c(C(F)(F)F)cc(-c5ccoc5)cn4c3Cl)C2)cc1 (stereo not shown) [Compound 180, (3-Chloro-6-furan-3-yl-8-trifluoromethyl-imidazo[1,2-a]pyridin-2-yl)-[3-(4-methoxy-phenylamino)-pyrrolidin-1-yl]-methanone] | 12.1 µM |
| CCOC1CCN(C(=O)c2nc3c(C(F)(F)F)cc(-c4cn[nH]c4)cn3c2Cl)C1 (stereo not shown) [Compound 181, [3-Chloro-6-(1H-pyrazol-4-yl)-8-trifluoromethyl-imidazo[1,2-a]pyridin-2-yl]-(3-ethoxy-pyrrolidin-1-yl)-methanone] | 13.5 µM |
| NC(=O)COC1CCN(C(=O)c2nc3c(C(F)(F)F)cc(-c4cn[nH]c4)cn3c2Cl)CC1 [Compound 182, 2-{1-[3-Chloro-6-(1H-pyrazol-4-yl)-8-trifluoromethyl-imidazo[1,2-a]pyridine-2-carbonyl]-piperidin-4-yloxy}-acetamide] | 54.6 µM |
| O=C(c1nc2c(C(F)(F)F)cc(-c3ccoc3)cn2c1Cl)N1CCC(Nc2ncccn2)C1 (stereo not shown) [Compound 183, (3-Chloro-6-furan-3-yl-8-trifluoromethyl-imidazo [1,2-a]pyridin-2-yl)-[3-(pyrimidin-2-ylamino)-pyrrolidin-1-yl]-methanone] | 55 µM |
| O=C(Cc1cn2cc(-c3ccoc3)cc(C(F)(F)F)c2n1)Nc1nccs1 [Compound 184, 2-(6-Furan-3-yl-8-trifluoromethyl-imidazo[1,2-a]pyridin-2-yl)-N-thiazol-2-yl-acetamide] | > 50 µM |
| O=C(Cc1cn2cc(-c3ccoc3)cc(C(F)(F)F)c2n1)NCc1ccccc1 [Compound 185, N-Benzyl-2-(6-furan-3-yl-8-trifluoromethyl-imidazo[1,2-a]pyridin-2-yl)-acetamide] | 4.8 µM |
| O=C(Cc1cn2cc(-c3ccoc3)cc(C(F)(F)F)c2n1)N1CC=C(c2nccs2)C1 [Compound 186, 2-(6-Furan-3-yl-8-trifluoromethyl-imidazo[1,2-a]pyridin-2-yl)-1-(3-thiazol-2-yl-2,5-dihydro-pyrrol-1-yl)-ethanone] | 5.98 µM |
| O=C(Cc1cn2cc(-c3ccoc3)cc(C(F)(F)F)c2n1)N1CCC(c2cccs2)C1 (stereo not shown) [Compound 187, 2-(6-Furan-3-yl-8-trifluoromethyl-imidazo[1,2-a]pyridin-2-yl)-1-(3-thiophen-2-yl-pyrrolidin-1-yl)-ethanone] | 2 µM |
